Some results are limits rather than exact numbers.

Consider eight compounds from PMC9150099, “Preventing Influenza A Virus Infection by Mixed Inhibition of Neuraminidase and Hemagglutinin by Divalent Inhibitors” (Journal of Medicinal Chemistry, 2022).

The test system of test [1] is recombinant soluble tetrameric N1 and N9 proteins (neuraminidase). The class given is biochemical. As to conditions: for IC50: read-out: inhibition of recombinant NA tetramers in enzymatic MUNANA assay (IC50 μM).
For test [2], the target named is NA of the whole Neth09H1N1 virus (Influenza A virus, UniProt C3PSV3). Type of test: biochemical, Influenza virus A/Netherlands/602/2009 (Neth09H1N1). The conditions noted are these: for IC50: read-out: inhibition of NA of the whole virus in enzymatic MUNANA assay (IC50 μM).
Test [3] addresses Recombinant soluble N9 protein (N9 Spain) neuraminidase tetramer (Influenza A virus, UniProt K9MBB0). The class given is biochemical, Influenza A virus A/Anascrecca/Spain/1460/2008(H7N9).
Test [4] has as its system Neth09H1N1 virus infection of MDCK cells. The class given is cell-based, Influenza virus A/Netherlands/602/2009 (Neth09H1N1).
For test [5], the system named is HA on virus particle (Neth09H1N1). The class given is binding, Influenza virus A/Netherlands/602/2009 (Neth09H1N1).
For the next test, the system named is NA of Neth09H1N1 virus. Type of test: biochemical, Influenza virus A/Netherlands/602/2009 (Neth09H1N1).
The subject of test [6] is HA on virus particle (Neth09H1N1). As to conditions: cited from earlier work.

As usually defined, the IC50 is the midpoint of a concentration-inhibition curve. As to `C#CCCCC[C@H](CC)O[C@@H]1OC(C(=O)O)=C[C@H](O)[C@H]1NC(C)=O` [Compound 12], in test [1], the “potency difference to OC (OC more potent)” value (shortened to “potency difference to OC”) was “ca. 600 fold” and the IC50 amounted to 6.4 ± 1 µM. In test [2], the “potency difference to OC” value is “ca. 600 fold” and the IC50 was 2.33 ± 0.005 µM. The “reduction of potency relative to parent OCM” value in test [3] was found to be 6 fold. In test [4], the “CPE assay” value is recorded as over 5 mM and the “CPE reduction assay on MDCK cells, lowest concentration that inhibits CPE formation” value was over 5 µM. Besides, the “inhibition of virus-receptor binding (HA inhibition) by BLI” value (from here on “inhibition … (HA inhibition) by BLI”) in test [5] is given as “significant HA binding”.
Turning to `C#CCCCC[C@H](CC)O[C@H]1OC(C(=O)O)=C[C@H](O)[C@H]1NC(C)=O` [Compound 14], the “IC50, NA (N9 Spain) MUNANA enzyme inhibition” value in test [3] is recorded as “no inhibition”.
Same read-out and setting: as for `C#CCCCC[C@@H](CC)O[C@H]1OC(C(=O)O)=C[C@H](O)[C@H]1NC(C)=O` [Compound 15], the entry is “no inhibition”.
For the compound `CC[C@@H](CCCCc1cn([C@H]2[C@H](OC(C)=O)[C@@H](OC(C)=O)[C@H](n3cc(CCCC[C@H](CC)O[C@@H]4OC(C(=O)O)=C[C@H](O)[C@H]4NC(C)=O)nn3)O[C@@H]2COC(C)=O)nn1)O[C@@H]1OC(C(=O)O)=C[C@H](O)[C@H]1NC(C)=O` [Compound 17a], the IC50 in test [1] amounted to 24.4 ± 17.5 µM; in test [2], 9.4 ± 0.4 µM. The “CPE assay” value in test [4] is recorded as over 5 mM. The “CPE reduction assay on MDCK cells, lowest concentration that inhibits CPE formation” value in test [4] is over 5 µM.
For the compound `CC[C@@H](CCCCc1cn([C@H]2[C@H](O)[C@@H](O)[C@H](n3cc(-c4ccc(-c5cn([C@H]6[C@H](O)[C@@H](O)[C@H](n7cc(-c8ccc(-c9cn([C@@H]%10O[C@H](CO)[C@@H](n%11cc(CCCC[C@H](CC)O[C@@H]%12OC(C(=O)O)=C[C@H](O)[C@H]%12NC(C)=O)nn%11)[C@H](O)[C@H]%10O)nn9)cc8)nn7)O[C@@H]6CO)nn5)cc4)nn3)O[C@@H]2CO)nn1)O[C@@H]1OC(C(=O)O)=C[C@H](O)[C@H]1NC(C)=O` [Compound 21], in test [1], the “potency difference to OC” value was “ca. 100 fold” and the IC50 came out at 1.3 ± 0.4 µM. For the same compound, the “NA inhibition judged from virus re-binding to regenerated sensor” value in the test with NA of Neth09H1N1 virus is listed as “able to inhibit the NA”. In test [2], the “multivalency enhancement in comparison with monovalent 12” value is 20–30 fold, the “potency difference to OC” value was “ca. 25 fold” and the IC50 was found to be 0.11 ± 0.004 µM. In addition, in test [4], the “CPE assay” value was 0.45 ± 0.4 mM; the “CPE reduction assay on MDCK cells, lowest concentration that inhibits CPE formation” value is 0.45 ± 0.4 µM; the “amount needed to prevent cell killing (CPE) relative to IC50 in MUNANA assay with the whole virus” value was found to be 4 fold; the “better CPE inhibitor than OC” value is “ca. 2 fold”. Also, in test [5], the “inhibition of virus binding to the BLI sensor, compound alone” value is listed as “sufficient to prevent apparent viral binding to the sensor”; the “inhibition … (HA inhibition) by BLI” value is “largest effect”; the “inhibition of virus-receptor binding by BLI in the presence of OC (Figure 5a)” value is listed as “inhibited virus-receptor binding”.
`CC[C@@H](CCCCc1cn([C@H]2[C@H](O)[C@@H](O)[C@H](n3cc(-c4ccc(-c5cn([C@@H]6O[C@H](CO)[C@@H](n7cc(-c8cc(O)c(-c9cn([C@@H]%10O[C@H](CO)[C@@H](n%11cc(-c%12ccc(-c%13cn([C@@H]%14O[C@H](CO)[C@@H](n%15cc(CCCC[C@H](CC)O[C@@H]%16OC(C(=O)O)=C[C@H](O)[C@H]%16NC(C)=O)nn%15)[C@H](O)[C@H]%14O)nn%13)cc%12)nn%11)[C@H](O)[C@H]%10O)nn9)cc8O)nn7)[C@H](O)[C@H]6O)nn5)cc4)nn3)O[C@@H]2CO)nn1)O[C@@H]1OC(C(=O)O)=C[C@H](N)[C@H]1NC(C)=O` [Compound 24]: in test [1], the IC50 turned out to be 10.6 ± 1.7 µM. Besides, the IC50 in test [2] came out at 4.7 ± 0.9 µM. Besides, in test [4], the “CPE assay” value is 0.84 ± 0.4 mM; the “CPE reduction assay on MDCK cells, lowest concentration that inhibits CPE formation” value was determined as 0.84 ± 0.4 µM; the “amount needed to prevent cell killing (CPE) relative to IC50 in MUNANA assay with the whole virus” value is 0.2 fold. In addition, the “inhibition … (HA inhibition) by BLI” value in test [5] was “did not have increased inhibitory activity compared to monovalent 12”.
Consider `CCC(CC)O[C@@H]1C=C(C(=O)O)C[C@H](N)[C@H]1NC(C)=O` [OC, oseltamivir carboxylate, reference compound], for which the “interference with HA-receptor binding” value in test [6] is recorded as “does not interfere with HA-receptor binding”. Also, in test [2], the IC50 came out at 0.004 ± 0.001 µM. In addition, in test [4], the “CPE assay” value is given as 1.0 ± 0.4 mM and the “CPE reduction assay on MDCK cells, lowest concentration that inhibits CPE formation” value came out at 1.0 ± 0.4 µM.
As for `CCC(CC)O[C@@H]1OC(C(=O)O)=C[C@H](O)[C@H]1NC(C)=O` [OCM, reference compound], the “inhibition … (HA inhibition) by BLI” value in test [5] was “can be observed”.
